Laboratory results reported in patent US11414395B2, “Heterocyclic compounds as modulators of mGluR7” (PRAGMA Therapeutics, priority 2017, dated 2022).

Biological target: human mGluR7 (Homo sapiens (Human), UniProt Q14831)
Test: Inositol monophosphate production assay (IP1 assay), inhibition of L-AP4 response
Assay type: cell-based
Conditions: mean IC50 from at least two independent experiments; HEK293 cells transiently transfected with mGluR7, Gqtop and EAAC1; IP1 production vs EC80 L-AP4
Text: Inositol Monophosphate Production Assay (IP1 Assay):
HEK293 cells were transiently transfected with mGluR7 by electroporation and seeded in a poly-ornithine coated 96-well plate at the density of 150 000 cells/well. To allow the monitoring of receptor activity through measurements of inositol monophosphate (IP1) production, mGluR7 was transfected with a chimeric Gq/Gi protein (Gqtop). and was also co-transfected with EAAC1, a glutamate transporter, to avoid influence of extracellular glutamate. Cells were cultured in Dulbecco's Modified Eagle Medium (DMEM, Invitrogen, Cergy Pontoise, France), supplemented with 10% of Fetal Bovine Serum (FBS). Medium was changed by Glutamax™ (Invitrogen, Cergy Pontoise, France) to reduce extracellular glutamate concentration 3 hours before stimulation
IP1 production was determined using the IP-One HTRF kit (CisBio Bioassays), a competitive immunoassay using cryptate-labeled anti-IP1 antibody and d2-labeled IP, according to the manufacturer's recommendations. All points were realized in triplicate.
Data were analyzed with Prism 6 software (GraphPadSoftware, San Diego, Calif.). Typically, in each experiment, a four-parameter concentration-response curve equation was used to fit data and potency (IC50) is estimated as logarithms (log IC50). Data were calculated as % of the control mGluR7 agonist L-AP4 response, defined as the response that is generated upon addition of an EC80-equivalent concentration of L-AP4.
The Table 2 below represents the mean IC50 obtained from at least two independent experiments.

Sequence of human mGluR7 (Q14831 35-915): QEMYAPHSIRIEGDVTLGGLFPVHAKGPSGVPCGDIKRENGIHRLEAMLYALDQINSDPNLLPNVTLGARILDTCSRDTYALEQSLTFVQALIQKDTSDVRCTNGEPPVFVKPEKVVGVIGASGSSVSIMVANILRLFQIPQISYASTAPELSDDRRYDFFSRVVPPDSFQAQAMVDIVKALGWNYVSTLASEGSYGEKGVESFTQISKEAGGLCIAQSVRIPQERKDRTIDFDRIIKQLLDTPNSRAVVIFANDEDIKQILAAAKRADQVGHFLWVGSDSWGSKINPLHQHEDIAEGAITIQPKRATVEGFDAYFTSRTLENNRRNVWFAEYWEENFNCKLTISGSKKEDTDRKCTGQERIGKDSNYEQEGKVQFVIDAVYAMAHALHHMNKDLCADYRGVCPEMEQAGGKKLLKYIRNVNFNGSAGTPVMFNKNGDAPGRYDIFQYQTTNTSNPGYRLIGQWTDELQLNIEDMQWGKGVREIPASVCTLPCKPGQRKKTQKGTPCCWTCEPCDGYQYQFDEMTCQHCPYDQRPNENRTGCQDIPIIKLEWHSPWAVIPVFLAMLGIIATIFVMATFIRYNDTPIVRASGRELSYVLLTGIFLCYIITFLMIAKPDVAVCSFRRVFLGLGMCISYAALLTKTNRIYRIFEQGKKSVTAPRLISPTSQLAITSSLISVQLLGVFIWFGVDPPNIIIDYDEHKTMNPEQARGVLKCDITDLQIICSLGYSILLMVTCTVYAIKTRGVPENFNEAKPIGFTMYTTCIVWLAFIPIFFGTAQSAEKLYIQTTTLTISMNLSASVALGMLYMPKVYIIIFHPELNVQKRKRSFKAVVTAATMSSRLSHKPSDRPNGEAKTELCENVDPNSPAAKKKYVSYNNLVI

Compound	IC50
COc1cccc(C2CCc3c(cnn(-c4ncc(N5CCOCC5)cn4)c3=O)C2)c1C (centres unmarked) [Example 112, 6-(3-methoxy-2-methylphenyl)-2-(5-morpholinopyrimidin-2-yl)-5,6,7,8-tetrahydrophthalazin-1(2H)-one]	< 500 nM
Cc1cccc(C2CCc3c(cnn(-c4ncccn4)c3=O)C2)c1C (centres unmarked) [Example 82, 6-(2,3-dimethylphenyl)-2-(pyrimidin-2-yl)-5,6,7,8-tetrahydrophthalazin-1(2H)-one]	500 to 1000 nM
Cc1cc(C)c(C2CCc3c(cnn(-c4ncccn4)c3=O)C2)c(C)c1 (centres unmarked) [Example 89, 6-mesityl-2-(pyrimidin-2-yl)-5,6,7,8-tetrahydrophthalazin-1(2H)-one]	< 500 nM
COc1cccc(C2CCc3c(cnn(-c4ccccn4)c3=O)C2)c1C (centres unmarked) [Example 60, 6-(3-methoxy-2-methylphenyl)-2-(pyridin-2-yl)-5,6,7,8-tetrahydrophthalazin-1(2H)-one]	< 500 nM
Cc1c(C2CCc3c(cnn(-c4ncccn4)c3=O)C2)cccc1N(C)C (centres unmarked) [Example 96, 6-(3-(dimethylamino)-2-methylphenyl)-2-(pyrimidin-2-yl)-5,6,7,8-tetrahydrophthalazin-1(2H)-one]	< 500 nM
Cc1ccc(C2CCc3c(cnn(-c4cccc(C#N)n4)c3=O)C2)c(C)c1 (centres unmarked) [Example 21, 6-(6-(2,4-dimethylphenyl)-1-oxo-5,6,7,8-tetrahydrophthalazin-2(1H)-yl)picolinonitrile]	< 500 nM
COc1cccc(C2CCc3c(cnn(-c4ncc(N5CCCC5)cn4)c3=O)C2)c1C (centres unmarked) [Example 111, 6-(3-methoxy-2-methylphenyl)-2-(5-(pyrrolidin-1-yl)pyrimidin-2-yl)-5,6,7,8-tetrahydrophthalazin-1(2H)-one]	1000 to 30000 nM
Cc1cc(Cl)ccc1C1CCc2c(cnn(-c3ncccn3)c2=O)C1 (centres unmarked) [Example 98, 6-(4-chloro-2-methylphenyl)-2-(pyrimidin-2-yl)-5,6,7,8-tetrahydrophthalazin-1(2H)-one]	< 500 nM
COc1ccc(C)c(C2CCc3c(cnn(-c4ccccn4)c3=O)C2)c1 (centres unmarked) [Example 61, 6-(5-methoxy-2-methylphenyl)-2-(pyridin-2-yl)-5,6,7,8-tetrahydrophthalazin-1(2H)-one]	< 500 nM
Cc1ccc(-n2ncc3c(c2=O)CCC(c2ccc(C)cc2C)C3)nc1 (centres unmarked) [Example 18, 6-(2,4-dimethylphenyl)-2-(5-methylpyridin-2-yl)-5,6,7,8-tetrahydrophthalazin-1(2H)-one]	< 500 nM
COc1cccc(C2CCc3c(cnn(-c4ncc(C)cn4)c3=O)C2)c1Cl (single isomer, unassigned; (+)) [Example 135, (+)-6-(2-chloro-3-methoxyphenyl)-2-(5-methylpyrimidin-2-yl)-5,6,7,8-tetrahydrophthalazin-1(2H)-one]	500 to 1000 nM
CN1CCc2c(C3CCc4c(cnn(-c5ncccn5)c4=O)C3)cccc21 (centres unmarked) [Example 78, 6-(1-methylindolin-4-yl)-2-(pyrimidin-2-yl)-5,6,7,8-tetrahydrophthalazin-1(2H)-one]	< 500 nM
Cc1cnc(-n2ncc3c(c2=O)CCC(c2cccc(OC4CC4)c2C)C3)nc1 (single isomer, unassigned; (-)) [Example 132, (−)-6-(3-cyclopropoxy-2-methylphenyl)-2-(5-methylpyrimidin-2-yl)-5,6,7,8-tetrahydrophthalazin-1(2H)-one]	< 500 nM
O=c1c2c(cnn1-c1ncccn1)CC(c1cccc(OC3CC3)c1Cl)CC2 (single isomer, unassigned; (-)) [Example 130, (−)-6-(2-chloro-3-cyclopropoxyphenyl)-2-(pyrimidin-2-yl)-5,6,7,8-tetrahydrophthalazin-1(2H)-one]	< 500 nM
COc1cc(C)ccc1C1CCc2c(cnn(-c3ccccn3)c2=O)C1 (centres unmarked) [Example 67, 6-(2-methoxy-4-methylphenyl)-2-(pyridin-2-yl)-5,6,7,8-tetrahydrophthalazin-1(2H)-one]	500 to 1000 nM
Cc1ccnc(-n2ncc3c(c2=O)CCC(c2ccc(C)cc2C)C3)c1 (centres unmarked) [Example 19, 6-(2,4-dimethylphenyl)-2-(4-methylpyridin-2-yl)-5,6,7,8-tetrahydrophthalazin-1(2H)-one]	< 500 nM
COc1cccc(C2CCc3c(cnn(-c4ccc(N5CCOCC5)cn4)c3=O)C2)c1C (centres unmarked) [Example 113, 6-(3-methoxy-2-methylphenyl)-2-(5-morpholinopyridin-2-yl)-5,6,7,8-tetrahydrophthalazin-1(2H)-one]	< 500 nM
Cc1ccc(C2CCc3c(cnn(-c4ccc(O)cn4)c3=O)C2)c(C)c1 (centres unmarked) [Example 25, 6-(2,4-dimethylphenyl)-2-(5-hydroxypyridin-2-yl)-5,6,7,8-tetrahydrophthalazin-1(2H)-one]	< 500 nM

Compound	IC50
COc1cc(C)ccc1C1CCc2c(cnn(-c3ncccn3)c2=O)C1 (centres unmarked) [Example 70, 6-(2-methoxy-4-methylphenyl)-2-(pyrimidin-2-yl)-5,6,7,8-tetrahydrophthalazin-1(2H)-one]	500 to 1000 nM
COc1ccccc1C1CCc2c(cnn(-c3ccccn3)c2=O)C1 (centres unmarked) [Example 58, 6-(2-methoxyphenyl)-2-(pyridin-2-yl)-5,6,7,8-tetrahydrophthalazin-1(2H)-one]	< 500 nM
Cc1c(OCc2ccccc2)cccc1C1CCc2c(cnn(-c3ncccn3)c2=O)C1 (centres unmarked) [Example 106, 6-(3-(benzyloxy)-2-methylphenyl)-2-(pyrimidin-2-yl)-5,6,7,8-tetrahydrophthalazin-1(2H)-one]	1000 to 30000 nM
CC(=O)Nc1cnc(-n2ncc3c(c2=O)CCC(c2ccc(C)cc2C)C3)nc1 (single isomer, unassigned; (+)) [Example 137, (+)-N-(2-(6-(2,4-dimethylphenyl)-1-oxo-5,6,7,8-tetrahydrophthalazin-2(1H)-yl)pyrimidin-5-yl)acetamide]	< 500 nM
COc1cccc(C2CCc3c(cnn(-c4ncc(OCCO)cn4)c3=O)C2)c1C (centres unmarked) [Example 119, 2-(5-(2-hydroxyethoxy)pyrimidin-2-yl)-6-(3-methoxy-2-methylphenyl)-5,6,7,8-tetrahydrophthalazin-1(2H)-one]	< 500 nM
Cc1ccc(C2CCc3c(ncn(-c4ccccn4)c3=O)C2)c(C)c1 (centres unmarked) [Example 122, 7-(2,4-dimethylphenyl)-3-(pyridin-2-yl)-5,6,7,8-tetrahydroquinazolin-4(3H)-one]	< 500 nM
COc1ccnc(-n2ncc3c(c2=O)CCC(c2ccc(C)cc2C)C3)n1 (centres unmarked) [Example 35, 6-(2,4-dimethylphenyl)-2-(4-methoxypyrimidin-2-yl)-5,6,7,8-tetrahydrophthalazin-1(2H)-one]	< 500 nM
Cc1ccc(C2CCc3c(cnn(-c4ncccn4)c3=O)C2)c(C)c1 (centres unmarked) [Example 29, 6-(2,4-dimethylphenyl)-2-(pyrimidin-2-yl)-5,6,7,8-tetrahydrophthalazin-1(2H)-one]	< 500 nM
Cc1ccc(C2CCc3c(cnn(-c4ncccc4Cl)c3=O)C2)c(C)c1 (centres unmarked) [Example 8, 2-(3-chloropyridin-2-yl)-6-(2,4-dimethylphenyl)-5,6,7,8-tetrahydrophthalazin-1(2H)-one]	< 500 nM
COc1cc(C2CCc3c(cnn(-c4ncccn4)c3=O)C2)c(C)cc1C (centres unmarked) [Example 97, 6-(5-methoxy-2,4-dimethylphenyl)-2-(pyrimidin-2-yl)-5,6,7,8-tetrahydrophthalazin-1(2H)-one]	< 500 nM
Cc1ccc(C2CCc3c(cnn(-c4ccc(N5CCOCC5)cn4)c3=O)C2)c(C)c1 (centres unmarked) [Example 114, 6-(2,4-dimethylphenyl)-2-(5-morpholinopyridin-2-yl)-5,6,7,8-tetrahydrophthalazin-1(2H)-one]	< 500 nM
CN1CCc2c(C3CCc4c(cnn(-c5ccccn5)c4=O)C3)cccc21 (centres unmarked) [Example 69, 6-(1-methylindolin-4-yl)-2-(pyridin-2-yl)-5,6,7,8-tetrahydrophthalazin-1(2H)-one]	< 500 nM
O=c1c2c(cnn1-c1ncccn1)CC(c1cccc3c1ccn3C1CC1)CC2 (single isomer, unassigned; (-)) [Example 139, (−)-6-(1-cyclopropyl-1H-indol-4-yl)-2-(pyrimidin-2-yl)-5,6,7,8-tetrahydrophthalazin-1(2H)-one]	< 500 nM
COc1cccc(C2CCc3c(cnn(-c4ncc(C5CC5)cn4)c3=O)C2)c1C (centres unmarked) [Example 125, 2-(5-cyclopropylpyrimidin-2-yl)-6-(3-methoxy-2-methylphenyl)-5,6,7,8-tetrahydrophthalazin-1(2H)-one]	< 500 nM
Cc1ccc(C2CCc3c(cnn(-c4ccccn4)c3=O)C2)c(C)c1 (single isomer, unassigned; (-)) [Example 4, (−)-6-(2,4-dimethyl-phenyl)-2-pyridin-2-yl-5,6,7,8-tetrahydro-2H-phthalazin-1-one]	1000 to 30000 nM
Cc1ccc(C2CCc3c(cnn(-c4cnccn4)c3=O)C2)c(C)c1 (centres unmarked) [Example 30, 6-(2,4-dimethylphenyl)-2-(pyrazin-2-yl)-5,6,7,8-tetrahydrophthalazin-1(2H)-one]	< 500 nM
Cc1cnc(-n2ncc3c(c2=O)CCC(c2cccc(OC4CC4)c2C)C3)nc1 (single isomer, unassigned; (+)) [Example 133, (+)-6-(3-cyclopropoxy-2-methylphenyl)-2-(5-methylpyrimidin-2-yl)-5,6,7,8-tetrahydrophthalazin-1(2H)-one]	1000 to 30000 nM
